Experimental data taken from ChEMBL document CHEMBL5678818, “Discovery of potent SOS1 inhibitors that block RAS activation via disruption of the RAS-SOS1 interaction” (Proc Natl Acad Sci U S A, 2019).

Legend:
[1] = target: T1, Serine/threonine-protein kinase D3 (Homo sapiens) (UniProt O94806); test: Inhibition of PRKD3 (unknown origin) assessed as residual activity at 1000 nM by KINOMEscan analysis relative to control
T1 sequence (whole entry): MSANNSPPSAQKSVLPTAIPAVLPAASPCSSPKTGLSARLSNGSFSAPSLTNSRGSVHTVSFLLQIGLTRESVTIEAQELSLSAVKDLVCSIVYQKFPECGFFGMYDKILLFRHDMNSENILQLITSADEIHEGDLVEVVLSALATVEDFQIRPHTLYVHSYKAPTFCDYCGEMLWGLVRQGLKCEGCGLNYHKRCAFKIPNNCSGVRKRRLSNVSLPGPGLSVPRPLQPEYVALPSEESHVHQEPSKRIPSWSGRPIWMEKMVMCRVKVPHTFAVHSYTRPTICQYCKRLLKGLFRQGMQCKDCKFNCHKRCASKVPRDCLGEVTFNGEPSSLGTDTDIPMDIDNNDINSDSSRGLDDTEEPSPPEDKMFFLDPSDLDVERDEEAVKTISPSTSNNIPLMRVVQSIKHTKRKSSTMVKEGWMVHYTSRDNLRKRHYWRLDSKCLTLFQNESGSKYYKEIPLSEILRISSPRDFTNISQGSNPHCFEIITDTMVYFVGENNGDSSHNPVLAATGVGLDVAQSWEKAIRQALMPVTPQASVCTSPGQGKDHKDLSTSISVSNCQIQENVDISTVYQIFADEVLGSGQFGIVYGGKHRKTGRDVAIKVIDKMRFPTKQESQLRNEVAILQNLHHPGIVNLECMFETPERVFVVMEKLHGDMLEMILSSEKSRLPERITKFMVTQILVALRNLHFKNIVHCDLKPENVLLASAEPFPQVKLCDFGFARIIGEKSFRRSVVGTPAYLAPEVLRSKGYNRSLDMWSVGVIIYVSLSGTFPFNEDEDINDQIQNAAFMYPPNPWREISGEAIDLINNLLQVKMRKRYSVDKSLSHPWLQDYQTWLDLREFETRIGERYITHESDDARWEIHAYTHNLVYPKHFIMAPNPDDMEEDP

[2] = target: RAC-alpha serine/threonine-protein kinase (Homo sapiens) (UniProt P31749); test: Inhibition of AKT1 (unknown origin) assessed as residual activity at 1000 nM by KINOMEscan analysis relative to control
RAC-alpha serine/threonine-protein kinase (Homo sapiens), sequence (P31749 whole entry): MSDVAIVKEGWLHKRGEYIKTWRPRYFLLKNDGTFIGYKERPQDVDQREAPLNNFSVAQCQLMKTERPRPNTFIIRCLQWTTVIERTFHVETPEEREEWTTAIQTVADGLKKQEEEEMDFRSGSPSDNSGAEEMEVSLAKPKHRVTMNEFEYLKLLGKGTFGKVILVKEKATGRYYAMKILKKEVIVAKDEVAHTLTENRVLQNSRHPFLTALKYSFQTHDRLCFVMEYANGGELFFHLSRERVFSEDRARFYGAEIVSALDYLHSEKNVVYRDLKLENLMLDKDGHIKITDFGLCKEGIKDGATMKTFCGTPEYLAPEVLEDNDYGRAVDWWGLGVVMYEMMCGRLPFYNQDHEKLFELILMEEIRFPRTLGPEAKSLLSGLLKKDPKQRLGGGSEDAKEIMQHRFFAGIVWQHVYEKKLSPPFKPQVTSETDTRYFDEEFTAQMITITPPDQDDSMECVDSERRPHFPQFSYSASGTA

[3] = target: T2, Mitogen-activated protein kinase kinase kinase 5 (Homo sapiens) (UniProt Q99683); test: Inhibition of ASK1 (unknown origin) assessed as residual activity at 1000 nM by KINOMEscan analysis relative to control
T2 sequence (whole entry): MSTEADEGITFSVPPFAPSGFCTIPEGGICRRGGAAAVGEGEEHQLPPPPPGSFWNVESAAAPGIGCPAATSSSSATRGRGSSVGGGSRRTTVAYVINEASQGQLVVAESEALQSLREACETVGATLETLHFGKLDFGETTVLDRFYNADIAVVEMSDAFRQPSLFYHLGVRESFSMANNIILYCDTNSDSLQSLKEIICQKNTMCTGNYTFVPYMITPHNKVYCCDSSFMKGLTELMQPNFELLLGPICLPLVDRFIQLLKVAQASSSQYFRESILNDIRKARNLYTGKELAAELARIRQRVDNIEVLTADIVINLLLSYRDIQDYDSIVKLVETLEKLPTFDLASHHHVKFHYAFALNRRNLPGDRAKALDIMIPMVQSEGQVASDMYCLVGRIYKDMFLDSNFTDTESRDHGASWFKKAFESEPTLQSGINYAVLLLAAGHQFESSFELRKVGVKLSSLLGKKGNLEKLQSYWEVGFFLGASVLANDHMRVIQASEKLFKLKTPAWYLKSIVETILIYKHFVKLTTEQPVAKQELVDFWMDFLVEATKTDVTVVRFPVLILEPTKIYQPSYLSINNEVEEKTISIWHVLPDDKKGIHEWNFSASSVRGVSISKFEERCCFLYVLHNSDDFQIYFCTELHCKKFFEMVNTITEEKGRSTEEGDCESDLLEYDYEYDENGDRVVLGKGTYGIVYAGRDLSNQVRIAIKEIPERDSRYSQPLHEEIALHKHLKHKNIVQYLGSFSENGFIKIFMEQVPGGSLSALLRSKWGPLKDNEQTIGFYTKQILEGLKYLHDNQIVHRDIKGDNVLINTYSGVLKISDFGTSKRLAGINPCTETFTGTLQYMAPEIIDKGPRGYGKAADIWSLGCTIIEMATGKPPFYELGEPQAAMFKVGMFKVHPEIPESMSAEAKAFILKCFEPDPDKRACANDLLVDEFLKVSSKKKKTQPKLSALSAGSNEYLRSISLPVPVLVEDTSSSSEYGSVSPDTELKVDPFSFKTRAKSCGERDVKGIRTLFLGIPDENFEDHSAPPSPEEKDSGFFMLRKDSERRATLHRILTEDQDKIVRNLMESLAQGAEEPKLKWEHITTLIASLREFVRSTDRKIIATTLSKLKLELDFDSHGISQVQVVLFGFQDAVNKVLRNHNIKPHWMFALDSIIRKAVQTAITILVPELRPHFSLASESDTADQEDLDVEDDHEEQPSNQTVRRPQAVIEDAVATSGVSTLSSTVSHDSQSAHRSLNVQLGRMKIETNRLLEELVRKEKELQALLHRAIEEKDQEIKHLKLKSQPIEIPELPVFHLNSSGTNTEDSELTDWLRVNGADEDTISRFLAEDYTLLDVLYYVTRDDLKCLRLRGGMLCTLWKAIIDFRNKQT

[4] = target: Misshapen-like kinase 1 (Homo sapiens) (UniProt Q8N4C8); test: Inhibition of MINK (unknown origin) assessed as residual activity at 1000 nM by KINOMEscan analysis relative to control
Misshapen-like kinase 1 (Homo sapiens), sequence (Q8N4C8 whole entry, looked up): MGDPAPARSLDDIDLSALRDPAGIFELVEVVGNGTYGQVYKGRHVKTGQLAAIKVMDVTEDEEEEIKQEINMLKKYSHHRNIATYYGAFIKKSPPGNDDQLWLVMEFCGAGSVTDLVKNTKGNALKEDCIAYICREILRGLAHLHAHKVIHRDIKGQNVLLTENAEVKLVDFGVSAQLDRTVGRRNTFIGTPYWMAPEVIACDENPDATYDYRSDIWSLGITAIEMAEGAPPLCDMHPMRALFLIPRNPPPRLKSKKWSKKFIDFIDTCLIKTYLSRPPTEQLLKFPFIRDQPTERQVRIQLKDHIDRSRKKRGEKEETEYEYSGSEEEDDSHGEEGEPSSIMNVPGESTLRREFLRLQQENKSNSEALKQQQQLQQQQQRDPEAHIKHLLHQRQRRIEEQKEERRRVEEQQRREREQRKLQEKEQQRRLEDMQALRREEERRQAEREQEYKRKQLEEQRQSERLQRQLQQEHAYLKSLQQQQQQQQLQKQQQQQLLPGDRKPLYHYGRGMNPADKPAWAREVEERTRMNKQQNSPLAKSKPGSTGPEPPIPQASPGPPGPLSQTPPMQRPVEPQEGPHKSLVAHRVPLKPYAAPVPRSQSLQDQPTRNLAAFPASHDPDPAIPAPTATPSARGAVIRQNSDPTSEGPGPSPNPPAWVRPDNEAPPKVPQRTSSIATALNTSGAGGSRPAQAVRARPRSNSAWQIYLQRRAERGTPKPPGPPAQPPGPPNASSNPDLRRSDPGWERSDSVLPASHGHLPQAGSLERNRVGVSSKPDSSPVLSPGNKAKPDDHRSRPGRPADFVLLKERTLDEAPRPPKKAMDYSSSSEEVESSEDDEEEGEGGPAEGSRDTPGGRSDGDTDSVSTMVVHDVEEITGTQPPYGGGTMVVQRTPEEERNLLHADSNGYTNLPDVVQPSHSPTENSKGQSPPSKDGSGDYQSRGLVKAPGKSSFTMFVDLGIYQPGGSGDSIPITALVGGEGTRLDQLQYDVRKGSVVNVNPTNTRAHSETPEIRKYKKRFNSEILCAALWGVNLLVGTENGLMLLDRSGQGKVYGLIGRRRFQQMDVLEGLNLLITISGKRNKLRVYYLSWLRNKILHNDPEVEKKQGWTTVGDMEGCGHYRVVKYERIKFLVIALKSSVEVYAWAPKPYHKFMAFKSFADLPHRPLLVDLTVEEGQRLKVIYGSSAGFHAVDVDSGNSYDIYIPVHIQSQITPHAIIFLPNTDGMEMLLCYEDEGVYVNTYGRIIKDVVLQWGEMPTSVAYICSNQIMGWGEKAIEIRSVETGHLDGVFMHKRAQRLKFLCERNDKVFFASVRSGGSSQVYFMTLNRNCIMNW

[5] = target: Rho-associated protein kinase 2 (Homo sapiens) (UniProt O75116); test: Inhibition of ROCK2 (unknown origin) assessed as residual activity at 1000 nM by KINOMEscan analysis relative to control
[6] = target: Receptor-type tyrosine-protein kinase FLT3 (Homo sapiens) (UniProt P36888); test: Inhibition of autoinhibited FLT3 (unknown origin) assessed as residual activity at 1000 nM by KINOMEscan analysis relative to control
Receptor-type tyrosine-protein kinase FLT3 (Homo sapiens), sequence (P36888 whole entry, canonical isoform): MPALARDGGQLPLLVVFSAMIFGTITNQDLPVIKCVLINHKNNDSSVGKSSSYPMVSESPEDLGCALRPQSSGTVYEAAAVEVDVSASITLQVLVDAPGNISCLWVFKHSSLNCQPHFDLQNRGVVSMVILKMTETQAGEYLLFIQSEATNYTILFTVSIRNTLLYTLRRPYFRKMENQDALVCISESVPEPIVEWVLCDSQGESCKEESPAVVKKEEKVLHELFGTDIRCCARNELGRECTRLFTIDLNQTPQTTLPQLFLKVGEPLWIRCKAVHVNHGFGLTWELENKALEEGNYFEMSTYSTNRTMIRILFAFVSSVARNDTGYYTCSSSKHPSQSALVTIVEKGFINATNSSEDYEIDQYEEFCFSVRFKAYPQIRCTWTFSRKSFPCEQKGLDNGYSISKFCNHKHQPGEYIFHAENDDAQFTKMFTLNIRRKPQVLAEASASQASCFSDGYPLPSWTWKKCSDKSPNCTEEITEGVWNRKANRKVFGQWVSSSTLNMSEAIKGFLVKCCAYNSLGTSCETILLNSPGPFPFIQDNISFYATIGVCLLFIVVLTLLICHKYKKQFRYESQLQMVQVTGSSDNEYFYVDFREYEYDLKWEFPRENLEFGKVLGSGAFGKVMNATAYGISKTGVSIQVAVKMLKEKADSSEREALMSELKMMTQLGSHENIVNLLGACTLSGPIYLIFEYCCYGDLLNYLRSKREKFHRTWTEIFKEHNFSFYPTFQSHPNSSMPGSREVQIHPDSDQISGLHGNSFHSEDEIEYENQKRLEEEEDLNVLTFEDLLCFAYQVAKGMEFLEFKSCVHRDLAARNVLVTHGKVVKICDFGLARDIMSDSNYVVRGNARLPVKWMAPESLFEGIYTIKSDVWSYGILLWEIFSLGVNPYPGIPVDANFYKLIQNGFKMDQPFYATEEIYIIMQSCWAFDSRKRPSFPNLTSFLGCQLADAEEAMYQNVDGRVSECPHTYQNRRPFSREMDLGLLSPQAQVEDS

[7] = target: Phosphatidylinositol 4,5-bisphosphate 3-kinase catalytic subunit alpha isoform (Homo sapiens) (UniProt P42336); test: Inhibition of PIK3CA (unknown origin) assessed as residual activity at 1000 nM by KINOMEscan analysis relative to control
[8] = target: Tyrosine-protein kinase Fes/Fps (Homo sapiens) (UniProt P07332); test: Inhibition of FES (unknown origin) assessed as residual activity at 1000 nM by KINOMEscan analysis relative to control
Tyrosine-protein kinase Fes/Fps (Homo sapiens), sequence (P07332 whole entry): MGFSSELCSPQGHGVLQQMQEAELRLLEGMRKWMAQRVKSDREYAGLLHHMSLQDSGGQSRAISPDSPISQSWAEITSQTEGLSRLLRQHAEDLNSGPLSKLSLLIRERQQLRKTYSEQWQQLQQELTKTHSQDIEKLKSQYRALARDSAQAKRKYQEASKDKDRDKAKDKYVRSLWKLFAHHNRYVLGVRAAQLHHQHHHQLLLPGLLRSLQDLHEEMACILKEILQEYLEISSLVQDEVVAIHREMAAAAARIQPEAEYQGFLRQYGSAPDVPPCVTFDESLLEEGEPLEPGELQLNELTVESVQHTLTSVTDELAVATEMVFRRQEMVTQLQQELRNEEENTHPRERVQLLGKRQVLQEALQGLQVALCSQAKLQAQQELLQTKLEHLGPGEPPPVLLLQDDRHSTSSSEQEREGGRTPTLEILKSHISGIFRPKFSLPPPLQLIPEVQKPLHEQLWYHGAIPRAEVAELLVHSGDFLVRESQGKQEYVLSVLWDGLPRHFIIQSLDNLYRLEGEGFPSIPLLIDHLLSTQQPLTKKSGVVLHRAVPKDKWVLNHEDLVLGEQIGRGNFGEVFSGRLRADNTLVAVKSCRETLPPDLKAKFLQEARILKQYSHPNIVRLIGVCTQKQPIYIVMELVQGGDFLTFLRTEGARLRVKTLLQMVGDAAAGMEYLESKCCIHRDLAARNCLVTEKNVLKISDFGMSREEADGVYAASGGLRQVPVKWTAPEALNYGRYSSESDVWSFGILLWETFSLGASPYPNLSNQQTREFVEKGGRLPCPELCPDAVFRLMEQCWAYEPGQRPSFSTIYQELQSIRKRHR

[9] = target: TGF-beta receptor type-2 (Homo sapiens) (UniProt P37173); test: Inhibition of TGFBR2 (unknown origin) assessed as residual activity at 1000 nM by KINOMEscan analysis relative to control
TGF-beta receptor type-2 (Homo sapiens), sequence (P37173 whole entry): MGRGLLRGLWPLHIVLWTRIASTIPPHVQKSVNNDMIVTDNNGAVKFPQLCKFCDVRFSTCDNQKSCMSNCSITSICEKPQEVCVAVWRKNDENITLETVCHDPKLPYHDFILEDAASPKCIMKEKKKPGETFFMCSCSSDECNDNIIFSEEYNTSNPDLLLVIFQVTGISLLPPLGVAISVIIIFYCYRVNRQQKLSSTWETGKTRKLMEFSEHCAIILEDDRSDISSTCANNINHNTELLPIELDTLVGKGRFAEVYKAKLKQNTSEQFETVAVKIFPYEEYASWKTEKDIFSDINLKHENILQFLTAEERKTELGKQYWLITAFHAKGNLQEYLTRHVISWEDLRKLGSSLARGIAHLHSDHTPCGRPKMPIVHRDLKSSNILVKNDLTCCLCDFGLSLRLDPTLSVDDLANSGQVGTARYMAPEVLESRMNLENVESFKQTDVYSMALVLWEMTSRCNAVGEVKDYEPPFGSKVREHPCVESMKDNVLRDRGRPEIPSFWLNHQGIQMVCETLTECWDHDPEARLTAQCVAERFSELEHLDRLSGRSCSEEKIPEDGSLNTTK

Structure (SMILES) | Activity [1] [%] | Activity [2] [%] | Activity [3] [%] | Activity [4] [%] | Activity [5] [%] | Activity [6] [%] | Activity [7] [%] | Activity [8] [%] | Activity [9] [%]
COc1cc2nc(C)nc(N[C@H](C)c3cccc(-c4cn[nH]c4)c3)c2cc1OC | 100 | 82 | 100 | 100 | 72 | 100 | 96 | 45 | 93
COc1cc2ncnc(N[C@H](C)c3cccc4ccccc34)c2cc1OC | 100 | 87 | 76 | 74 | 91 | 87 | 73 | 99 | 100
